The structures appear in SMILES notation.

We go through three molecules from PMC11270681, “Synthesis and Systematic Investigation of Lepidiline A and Its Gold(I), Silver(I), and Copper(I) Complexes Using In Vitro Cancer Models and Multipotent Stem Cells” (ACS Omega, 2024).

The subject of one experiment is IGROV-1. The experiment in a line: Cytotoxicity (PrestoBlue), ovarian cancer line. Type of experiment: cell-based. The conditions noted are these: Homo sapiens, IGROV-1, 72 h incubation. The procedure:
(§1) OVCAR-3 (OVC-3) and OVCAR-8 (OVC-8) ovarian serous adenocarcinomas, IGROV-1 ovarian endometrioid adenocarcinoma, OVCAR-5 (OVC-5) upper gastrointestinal carcinoma, MDA-MB-231 breast adenocarcinoma, and MCF-7 and T-47D invasive breast carcinomas were purchased from the Developmental Therapeutic Program of the National Cancer Institute (NIH, USA) and were cultured in an RPMI medium (Thermo Fisher). Mes-Sa and Mes-Sa/Dx5 uterine sarcoma cell lines were purchased from American Type Culture Collection (ATCC) and were kept in DMEM (Thermo Fisher). Mes-Sa B1 was transfected with the human MDR1 gene, and Mes-Sa mCherry, Mes-Sa B1 mOrange, and Mes-Sa/Dx5 eGFP were engineered to stably express the respective fluorescent proteins previously.[51] Culture media for cancer cells were supplemented with 10% fetal bovine serum, 2 mM L-glutamine, and 100 units/mL penicillin and 100 μg/mL streptomycin (Thermo Fisher). The adipose tissue and bone marrow-derived mesenchymal stem cells (AD-MSC and BM-MSC) were described previously[37] and were kept in DMEM-F12 (Gibco) supplemented with 10% fetal bovine serum, L-glutamine (Thermo Fisher), 0.1% gentamicin (Gibco, 50 mg/mL), and 16 ng/mL fibroblast growth factor 2 (Peprotech). Cells were kept at 37 °C under 5% CO2 and were negative for mycoplasma infection.
(§2) Cytotoxicities of the nonfluorescent cancer cells were assessed with a PrestoBlue cell viability reagent (Thermo Fisher). Briefly, 2500 cells/well were seeded on 384-well plates; then, the next-day drugs were added. After 72 h of incubation, PrestoBlue was added in a 10% final concentration, and after an hour of additional incubation, plates were measured with a PerkinElmer EnSpire plate reader at 555 nm/585 nm excitation/emission wavelengths. Stem cells were seeded on 96-well plates at a density of 5000 cells/well, and the following day, drugs were added for 96 h of incubation; then, viability was assessed with 10% PrestoBlue diluted in PBS. Fluorescent cancer cells were admixed before seeding on 384-well plates at an 800 cells/well density each, thus altogether 2400 cells/well. Drugs were added the following day, and the intensity of the fluorescent proteins was measured after 144 h of incubation at the respective fluorescent channels (excitation/emission, eGFP: 485 nm/510 nm; mCherry: 585 nm/610 nm; mOrange: 545 nm/567 nm). pIC50 values were calculated by a custom program written by Judit Sessler in C#. IC50 values and standard deviation were calculated from average pIC50 values from at least 3 independent measurements.

A further experiment has as its system OVC-3. Briefly: Cytotoxicity (PrestoBlue), ovarian cancer line. Format: cell-based. The settings on record: OVC-3, 72 h incubation. The procedure:
as §1, §2

The subject of a further experiment is OVC-8. Briefly: Cytotoxicity (PrestoBlue), ovarian cancer line. Type of experiment: cell-based. The settings on record: OVC-8, 72 h incubation. The procedure:
as §1, §2

The subject of a further experiment is OVC-5. Briefly: Cytotoxicity (PrestoBlue), upper gastrointestinal cancer line. Format: cell-based. The procedure: as §1, §2
Experiment [1] relates to MCF-7. Briefly: Cytotoxicity (PrestoBlue), breast cancer line. Format: cell-based. The conditions noted are these: Homo sapiens, MCF7, MCF-7, 72 h incubation. The procedure: as §1, §2
The next experiment has as its system MDA-MB-231. The experiment in a line: Cytotoxicity (PrestoBlue), breast cancer line. Type of experiment: cell-based. The settings on record: Homo sapiens, MDA-MB-231, 72 h incubation. The procedure: as §1, §2
In experiment [2] the test system is T-47D. The experiment in a line: Cytotoxicity (PrestoBlue), breast cancer line. Type of experiment: cell-based. The settings on record: Homo sapiens, T47D, 72 h incubation. The procedure:
as §1, §2

For experiment [3], the system named is Mes-Sa. Briefly: Cytotoxicity, uterine sarcoma parental line. Type of experiment: cell-based. The settings on record: Homo sapiens, fluorescent protein intensity after 144 h. The procedure: as §1, §2
Another experiment deals with Mes-Sa B1. Briefly: Cytotoxicity, MDR1-transfected uterine sarcoma line. Format: cell-based. The conditions noted are these: Homo sapiens; Mes-Sa B1 (MDR1 transfected, ABCB1 expressing), fluorescent protein intensity after 144 h. The procedure:
as §1, §2

In another experiment the test system is Mes-Sa/Dx5. The experiment in a line: Cytotoxicity, doxorubicin-selected MDR uterine sarcoma line. Type of experiment: cell-based. The conditions noted are these: Homo sapiens, MES-SA/Dx5, 144 h, Mes-Sa/Dx5 (doxorubicin selected, ABCB1 expressing), fluorescent protein intensity after 144 h. The procedure:
as §1, §2

In another experiment the test system is AD-MSC. Briefly: Cytotoxicity (PrestoBlue), adipose-derived mesenchymal stem cells. Format: cell-based. The conditions noted are these: 96 h incubation. The procedure:
as §1, §2

The subject of a further experiment is BM-MSC. The experiment in a line: Cytotoxicity (PrestoBlue), bone marrow-derived mesenchymal stem cells. Type of experiment: cell-based. The conditions noted are these: BMMSC, 96 h incubation. The procedure:
as §1, §2

The next experiment has as its system im. BM-MSC. Briefly: Cytotoxicity (PrestoBlue), immortalized bone marrow MSC. Format: cell-based. The conditions noted are these: BMMSC, 96 h incubation. The procedure:
as §1, §2

Experiment [4] deals with 3 ovarium cancer lines (IGROV-1, OVC-3, and OVC-8). Briefly: Cytotoxicity, range over 3 ovarium cancer lines. The conditions noted are these: Homo sapiens; IGROV-1, OVC-3, OVC-8. Format: cell-based. The procedure: as §1, §2
The test system of experiment [5] is Bone marrow MSCs (BM-MSC). Briefly: Cytotoxicity, range over bone marrow MSCs. Format: cell-based. The settings on record: BMMSC; BM-MSC and immortalized BM-MSC. The procedure: as §1, §2
Experiment [6] has as its system MCF-7. Briefly: H2DCFDA intracellular ROS production assay. Type of experiment: cell-based. The conditions noted are these: MCF-7, 50 μM, 4 h incubation. The procedure: (§3) To assess intracellular ROS production, we used a H2DCFDA cellular ROS assay kit (ab113851, Abcam) according to the manufacturer’s instructions. Briefly, 20,000 cells were seeded on 96-well plates. On the following day, cells were washed, and H2DCFDA solution, prepared by avoiding direct light, was added for 45 min. Next, cells were washed, and 50 μM samples of test compounds were aspirated on the cells in a complete and phenol red-free medium (FluoroBrite, Thermo Fisher). At each hour, fluorescence of 2′,7′-dichlorofluorescein (DCF) was measured at 484 nm/535 nm excitation/emission wavelengths. Values were normalized to 0 h measurements. Values indicate at least 3 independent measurements.

For experiment [7], the system named is Mes-Sa. The experiment in a line: H2DCFDA intracellular ROS production assay. Format: cell-based. The conditions noted are these: 50 μM, 4 h incubation. The procedure: as §3
The subject of experiment [8] is T-47D. Briefly: H2DCFDA intracellular ROS production assay. The settings on record: 50 μM, 4 h incubation. Type of experiment: cell-based. The procedure:
as §3

For experiment [9], the system named is panel of cancer cell lines of various origins. Set-up: method as in PMID 12932133. The conditions noted are these: up to 10 μg/mL (approximately 60 μM for lepidiline A); cited from earlier work.
In a further experiment the test system is HL-60 leukemia line. Set-up: method as in PMID 34808062. The conditions noted are these: cited from earlier work.
A further experiment concerns MSCs. Briefly: Cytotoxicity, range over MSCs. Type of experiment: cell-based. The settings on record: BMMSC; AD-MSC, BM-MSC, immortalized BM-MSC. The procedure: as §1
(§4) Cytotoxicities of the nonfluorescent cancer cells were assessed with a PrestoBlue cell viability reagent (Thermo Fisher). Briefly, 2500 cells/well were seeded on 384-well plates; then, the next-day drugs were added. After 72 h of incubation, PrestoBlue was added in a 10% final concentration, and after an hour of additional incubation, plates were measured with a PerkinElmer EnSpire plate reader at 555 nm/585 nm excitation/emission wavelengths. Stem cells were seeded on 96-well plates at a density of 5000 cells/well, and the following day, drugs were added for 96 h of incubation; then, viability was assessed with 10% PrestoBlue diluted in PBS. […] IC50 values and standard deviation were calculated from average pIC50 values from at least 3 independent measurements.

For another experiment, the system named is cancer lines. The experiment in a line: Cytotoxicity, range over cancer lines. Type of experiment: cell-based. The settings on record: read-out: IC50 range over non-MDR cancer cells. The procedure:
as §1, §4

Regarding `Cc1c(C)[n+](Cc2ccccc2)cn1Cc1ccccc1.[Cl-]` [LA, 1,3-Dibenzyl-4,5-dimethyl-imidazol-1-ium-chloride], the half-inhibitory concentration (IC50) in the experiment with IGROV-1 was 59.9 µM; in the experiment with OVC-3 it was 48.1 µM; in the experiment on OVC-8, 57.2 µM; with OVC-5 (OVC-5, 72 h incubation, PrestoBlue), greater than 200 µM; in the experiment on MCF-7 [1], 71.7 µM; in the experiment on MDA-MB-231 it was 91.8 µM. Besides, the concentration for half-maximal inhibition (IC50) in the experiment with T-47D [2] is 16.1 µM; in the experiment on Mes-Sa [3], 27.8 µM; with Mes-Sa B1 it was greater than 200 µM; with Mes-Sa/Dx5, greater than 200 µM; with AD-MSC (listed as Lepidiline A), 184 µM; in the experiment on AD-MSC (Mesenchymal stem cells, 96 h) it was 184 µM. Besides, the IC50 was 69.1 µM with BM-MSC; 47.6 µM in the experiment on im. BM-MSC; 48.1 to 72.9 µM in [4]; 48 to 98 µM in [5]; roughly 30 µM in the experiment with HL-60 leukemia line. In addition, the “Lower susceptibility of OVC-5 compared to the ovarian cancer lines” value with OVC-5 (OVC-5 vs ovarian cancer lines) worked out at 4 fold. In addition, the “Intracellular ROS production compared to the medium” value in the experiment on MCF-7 [6], in the experiment on Mes-Sa [7] and in the experiment with T-47D [8] was “did not provoke extra ROS production” in each case. Besides, the “Toxicity against a panel of cancer cell lines” value in experiment [9] is “low or no toxicity”.

As for `Cc1c(C)[n+](Cc2ccccc2)c(C)n1Cc1ccccc1` [lepidiline B, reference compound], in experiment [9], the “Toxicity against a panel of cancer cell lines” value is on record as “low or no toxicity”. Further, the 50% inhibitory concentration (IC50) in the experiment with HL-60 leukemia line was 3.8 µM.

For the molecule `COc1cccc2c1C(=O)c1c(O)c3c(c(O)c1C2=O)C[C@@](O)(C(=O)CO)C[C@@H]3O[C@H]1C[C@H](N)[C@H](O)[C@H](C)O1` [Doxorubicin, doxorubicin, reference compound], the concentration for half-maximal inhibition (IC50) with OVC-8 was 0.19 µM; in the experiment on MDA-MB-231 it was 0.22 µM; in the experiment with Mes-Sa [3] it was 0.038 µM; in the experiment with Mes-Sa/Dx5, 2.41 µM; in the experiment with AD-MSC (Mesenchymal stem cells, 96 h), 0.13 µM; with BM-MSC, 0.1 µM. Also, the 50% inhibitory concentration (IC50) was 0.067 µM with im. BM-MSC, 0.067 to 0.13 µM with MSCs and 0.034 to 0.22 µM in the experiment with cancer lines.
